Laboratory results taken from the NIST ThermoML archive (doi:10.1016/j.jct.2016.02.025).

What was measured:
[1] = refractive index (Na D-line) (dimensionless); details: 100 kPa, Standard Abbe refractometry
[2] = 100 kPa; for speed of sound: Frequency=3 MHz, Sing-around technique in a fixed-path interferometer; for mass density: Vibrating tube method

CCCCn1cc[n+](C)c1.[Br-] [1-butyl-3-methylimidazolium bromide]
Metastable liquid
Details | mass density, [2] [kg/m3] | refractive index, [1] | speed of sound, [2] [m/s]
293.15 K | 1293.44 | 1.54699 | 1675.2
298.15 K | 1290.02 | 1.54575 | 1665.7
303.15 K | 1286.59 | 1.54445 | 1656
308.15 K | 1283.16 | 1.54312 | 1646
313.15 K | 1279.72 | 1.54186 | 1636.1
318.15 K | 1276.28 | 1.54052 | 1626.7
323.15 K | 1272.84 | 1.53928 | 1616.8

CCCCCCCCn1cc[n+](C)c1.[Br-] [1-methyl-3-octylimidazolium bromide]
Liquid
Details | mass density, [2] [kg/m3] | refractive index, [1] | speed of sound, [2] [m/s]
293.15 K | 1179.3 | 1.498 | 1481.8
298.15 K | 1175.69 | 1.49656 | 1467.6
303.15 K | 1172.08 | 1.49502 | 1454.3
308.15 K | 1168.54 | 1.49347 | 1441.4
313.15 K | 1165.04 | 1.49176 | 1428.8
318.15 K | 1161.52 | 1.49008 | 1416.5
323.15 K | 1157.99 | 1.48842 | 1404.4

CCCCCCn1cc[n+](C)c1.[Br-] [3-hexyl-1-methyl-1H-imidazolium bromide]
Liquid
Details | mass density, [2] [kg/m3] | refractive index, [1] | speed of sound, [2] [m/s]
293.15 K | 1227.46 | 1.51183 | 1609.1
298.15 K | 1223.74 | 1.50982 | 1588.1
303.15 K | 1220.31 | 1.50796 | 1570.4
308.15 K | 1216.69 | 1.50612 | 1552.3
313.15 K | 1213.05 | 1.50427 | 1534.4
318.15 K | 1209.41 | 1.50232 | 1517.4
323.15 K | 1205.58 | 1.50047 | 1500
